In article PMC12851007 (Angewandte Chemie (International Ed. in English), 2025):
Where a SMILES comes first, the peptide text is derived from it.

Columns and labels:
[1] = CX4/LCG tandem membrane assay with subsequent addition of spermine (transient vs stable pores); type: in vitro ADME; details: TP10 0.2 µM or melittin 5 nM at 60 s, spermine 20 µM at 340 s, 10 mM Hepes, 175 mM glucose, pH 7.5
Method: This means that TP10 renders the vesicle membranes only transiently permeable, while after some time, the pores “close”, most likely due to equilibration of the inside and outside concentrations of TP10. At sufficiently low TP10 concentrations, the vesicles have consequently released only some of their content after a certain incubation time and no further release of encapsulated compounds is observed thereafter. The transient nature of the TP10 pores was also confirmed herein by the CX4/LCG tandem membrane assay (Figure 4, black line). […] At this point of time, the TP10 pores should be either closed, or there should be some remaining stable equilibrium pores, which are too small to allow efflux of relatively large CX4 and/or LCG (MW > 500 Da), but sufficiently large to allow CF efflux (MW = 376 Da). Closed pores would refer to the previously reported graded mechanism, whereas the latter would point toward an all‐or‐none release mechanism.^[ [12], [70] ^] […] The newly developed assay has therefore the added capacity to afford more fine‐grained mechanistic information on membrane activity.
The blue trace is a control to illustrate full dissociation of the CX4/LCG complex during vesicle lysis by TX‐100.
LysisLysis vesicle lysisvesicle lysis […]
calibration cocktail at 600 s. a) Original changes in fluorescence intensity of LCG ( λex = 369 nm, λem = […]

[2] = CX4/LCG supramolecular tandem membrane assay, EYPC vesicles; type: in vitro ADME; details: 25 µM lipid, EYPC⊃CX4/LCG-LUVs, 10 mM Hepes, pH 7.5, 25 °C; fractional activity at 590 s, Hill fit; error = SD of fit, n = 1
Method: Membrane Activity M easurements
Vesicle preparation. 100 µ L of a solution of 25 mg/ml of POPC in chloroform or 200 µ L of a solution of 25 mg/ml of EYPC in chloroform was purged with nitrogen and dried overnight under hi gh vacuum. The thin lipid film was rehydrated with 1 ml reh ydrati on buffer (= inside buffer, see Tabl e S2 ) b y agitation at room temperature for 30min and then subjected to 2 0 freeze- th aw c ycles (freezing in liquid nitro gen and thawing at 40 °C). […]
Ta b l e S 2. Combinations of lipids and inside and outside buffer for CX4/LCG -LUVs.
No. Lipid Inside buffer = rehydration buffer Outside buffer […]
Vesicle quality control. T o ensure the absence of the CX4/ LCG reporter pair in the ex travesicular ph ase, 20 µL of the collected liposome fr action w as diluted to 2 ml with outside buffer and the fluor escen ce (λ exc = 369 nm; λ em = 502 nm) was recorded during the addition of […]
A co nstant fluorescenc e intensity durin g the addition of the stron gl y bindin g sp ermine verified the complete removal o f unencapsulated materi al. The size distribution of the liposomes was confirmed b y DLS to be unimodal and in the range of 120 to 150 nm diameter. […] Subsequently, the time-dependent change in fluorescence intensity (λ exc = 369 nm; λ em = 502 nm) was record ed during addition of 20 µ L of peptide stock solutions of varying concentrations at 60 s. […]

SMILES | kind of pores (fluorescence response to spermine added after the peptide) [1] | EC50 [2] [µM]
CC[C@H](C)[C@H](NC(=O)[C@H](CCCCN)NC(=O)[C@H](CCCCN)NC(=O)[C@H](C)NC(=O)[C@H](CC(C)C)NC(=O)[C@H](C)NC(=O)[C@H](C)NC(=O)[C@H](CC(C)C)NC(=O)[C@H](C)NC(=O)[C@H](CCCCN)NC(=O)[C@H](CC(C)C)NC(=O)[C@H](CC(N)=O)NC(=O)[C@@H](NC(=O)[C@H](CCCCN)NC(=O)CNC(=O)[C@H](CC(C)C)NC(=O)[C@H](CC(C)C)NC(=O)[C@H](Cc1ccc(O)cc1)NC(=O)CNC(=O)[C@H](C)N)[C@@H](C)CC)C(=O)N[C@@H](CC(C)C)C(=O)O [TP10] | absence of stable TP10 pores | –
CC[C@H](C)[C@H](NC(=O)[C@H](CCCCN)NC(=O)[C@@H](NC(=O)[C@@H](N)CCC(N)=O)[C@@H](C)CC)C(=O)N[C@@H](Cc1c[nH]c2ccccc12)C(=O)N[C@@H](Cc1ccccc1)C(=O)N[C@@H](CCC(N)=O)C(=O)N[C@@H](CC(N)=O)C(=O)N[C@@H](CCCNC(=N)N)C(=O)N[C@@H](CCCNC(=N)N)C(=O)N[C@@H](CCSC)C(=O)N[C@@H](CCCCN)C(=O)N[C@@H](Cc1c[nH]c2ccccc12)C(=O)N[C@@H](CCCCN)C(=O)N[C@@H](CCCCN)C(=O)O (H-QIKIWFQNRRMKWKK-OH) | – | 14 ± 3
